Measurements published in patent US8410064B2, “Classical cannabinoid metabolites and methods of use thereof” (priority 2009, dated 2013).

Columns and labels:
[1] = molecular target: T1, recombinant human UGT1A10 (Homo sapiens, UniProt Q9HAW8); assay: Glucuronidation by recombinant UGT1A10 (activity screen and steady-state kinetics); conditions: for glucuronidation activity (initial screen): 750 μM substrate, 90 min
T1 sequence (Q9HAW8 26-530): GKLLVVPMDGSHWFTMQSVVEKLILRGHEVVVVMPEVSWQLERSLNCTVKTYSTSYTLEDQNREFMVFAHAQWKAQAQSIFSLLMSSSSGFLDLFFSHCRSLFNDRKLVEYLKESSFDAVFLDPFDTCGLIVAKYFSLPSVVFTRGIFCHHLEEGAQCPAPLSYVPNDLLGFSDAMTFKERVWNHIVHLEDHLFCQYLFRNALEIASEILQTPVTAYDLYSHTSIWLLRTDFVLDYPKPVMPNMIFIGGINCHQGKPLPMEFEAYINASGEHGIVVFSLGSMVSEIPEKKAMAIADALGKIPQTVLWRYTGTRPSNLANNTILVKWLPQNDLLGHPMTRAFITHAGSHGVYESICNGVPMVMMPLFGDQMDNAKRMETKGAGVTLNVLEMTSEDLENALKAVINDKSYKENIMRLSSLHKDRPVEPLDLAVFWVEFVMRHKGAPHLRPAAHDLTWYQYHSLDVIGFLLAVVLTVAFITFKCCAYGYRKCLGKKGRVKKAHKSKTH

[2] = molecular target: T2, recombinant human UGT1A3 (Homo sapiens, UniProt P35503); assay: Glucuronidation by recombinant UGT1A3 (activity screen and steady-state kinetics); conditions: UDP-GlcUA 4 mM
T2 sequence (P35503 29-534): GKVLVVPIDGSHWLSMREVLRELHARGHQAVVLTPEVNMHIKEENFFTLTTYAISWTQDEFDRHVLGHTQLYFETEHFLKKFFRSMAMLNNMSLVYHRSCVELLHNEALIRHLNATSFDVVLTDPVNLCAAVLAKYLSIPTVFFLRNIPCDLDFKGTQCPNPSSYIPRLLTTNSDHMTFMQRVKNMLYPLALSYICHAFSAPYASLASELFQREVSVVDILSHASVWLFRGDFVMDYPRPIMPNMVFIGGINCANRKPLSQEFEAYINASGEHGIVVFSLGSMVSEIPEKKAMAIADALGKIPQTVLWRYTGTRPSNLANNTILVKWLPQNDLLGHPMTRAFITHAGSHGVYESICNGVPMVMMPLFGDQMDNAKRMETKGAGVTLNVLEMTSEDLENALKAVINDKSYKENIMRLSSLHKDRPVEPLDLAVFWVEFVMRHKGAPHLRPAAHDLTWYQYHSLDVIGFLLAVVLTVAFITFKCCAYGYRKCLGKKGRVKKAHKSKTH

[3] = molecular target: T3, recombinant human UGT1A1 (Homo sapiens, UniProt P22309); assay: Glucuronidation by recombinant UGT1A1 (activity screen and steady-state kinetics); conditions: UDP-GlcUA 4 mM
T3 sequence (P22309 26-533): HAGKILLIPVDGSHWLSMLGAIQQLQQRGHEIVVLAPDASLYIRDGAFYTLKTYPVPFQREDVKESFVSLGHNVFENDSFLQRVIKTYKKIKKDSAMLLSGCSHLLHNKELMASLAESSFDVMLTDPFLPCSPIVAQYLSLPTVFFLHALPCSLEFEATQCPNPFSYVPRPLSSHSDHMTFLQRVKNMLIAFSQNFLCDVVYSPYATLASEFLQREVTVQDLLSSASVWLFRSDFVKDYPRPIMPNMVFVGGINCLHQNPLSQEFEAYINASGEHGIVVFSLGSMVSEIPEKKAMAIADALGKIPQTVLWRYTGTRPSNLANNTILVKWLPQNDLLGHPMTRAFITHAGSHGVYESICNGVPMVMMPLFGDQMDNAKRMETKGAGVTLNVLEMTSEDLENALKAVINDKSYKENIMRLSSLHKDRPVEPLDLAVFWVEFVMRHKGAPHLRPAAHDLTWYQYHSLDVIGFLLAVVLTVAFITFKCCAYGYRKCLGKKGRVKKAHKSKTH

[4] = test system: human liver microsomes; assay: Glucuronidation by human liver microsomes (activity screen); conditions: human liver microsomes (HLM); 750 μM substrate, UDP-GlcUA 4 mM, 90 min
[5] = molecular target: T4, recombinant human UGT1A9 (Homo sapiens, UniProt O60656); assay: Glucuronidation by recombinant UGT1A9 (activity screen and steady-state kinetics); conditions: UDP-GlcUA 4 mM
T4 sequence (O60656 26-530): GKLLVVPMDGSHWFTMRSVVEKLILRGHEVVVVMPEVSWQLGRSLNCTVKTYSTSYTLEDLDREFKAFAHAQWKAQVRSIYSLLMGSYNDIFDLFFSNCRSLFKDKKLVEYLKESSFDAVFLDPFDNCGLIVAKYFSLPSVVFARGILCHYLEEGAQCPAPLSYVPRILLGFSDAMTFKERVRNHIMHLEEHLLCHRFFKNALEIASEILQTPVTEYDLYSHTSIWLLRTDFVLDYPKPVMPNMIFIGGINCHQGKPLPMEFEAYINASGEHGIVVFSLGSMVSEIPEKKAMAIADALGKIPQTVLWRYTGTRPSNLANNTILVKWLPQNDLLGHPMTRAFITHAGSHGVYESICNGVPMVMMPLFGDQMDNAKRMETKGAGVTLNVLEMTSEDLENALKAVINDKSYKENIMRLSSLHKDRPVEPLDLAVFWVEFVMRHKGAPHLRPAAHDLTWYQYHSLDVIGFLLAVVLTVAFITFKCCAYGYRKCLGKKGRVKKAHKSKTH

[6] = substrate: CCCCCc1cc(O)c2c(c1)OC(C)(C)c1ccc(C)cc1-2; assay: cells, lysate or membranes named; conditions: UDP-GlcUA 4 mM, 37° C., 30 min, TLC, pH 7.4
[7] = 5 μg membrane protein, 37° C., 30 min, TLC
[8] = 5 μg membrane protein, 37° C., 30 min, TLC, normalized
[9] = other: UGT1A7, 5 μg membrane protein
[10] = other: UGT1A9, 5 μg membrane protein
[11] = other: UGT1A10, 5 μg membrane protein
[12] = other: UGT1A8, 5 μg membrane protein

CCCCCc1cc(O)c2c(c1)OC(C)(C)c1ccc(C)cc1-2 [CBN, cannabinol]
glucuronidation activity (initial screen) ([1]; UDP-GlcUA 4 mM): glucuronidated at high levels
effectiveness of conjugation relative to 11-OH-THC ([1]; CBN versus 11-OH-THC): 3 fold

CCCCCc1cc(O)c2c(c1)OC(C)(C)[C@@H]1CCC(C(=O)O)=C[C@@H]21 [COOH-THC, (−)-11-nor-9-carboxy-Δ^9-THC]
Km [2, 7]: 68 ± 17 µM
Vmax [2, 8]: 0.68 ± 0.06 nmol/mg protein/min
glucuronidation activity (initial screen) ([2]; 750 μM substrate, 90 min): highest activity
Km [3, 7]: 170 ± 37 µM
Vmax [3, 8]: 0.22 ± 0.02 nmol/mg protein/min
glucuronidation activity (initial screen) ([3]; 750 μM substrate, 90 min): significant amount of activity
glucuronidation activity (initial screen) [4]: significant amount of activity

(±)-11-hydroxy-Δ^9-THC [11-OH-THC]
Km ([1]; 5 μg membrane protein, UDP-GlcUA 4 mM, 37° C., 30 min, TLC): 72 ± 19 µM
Vmax ([1]; 5 μg membrane protein, UDP-GlcUA 4 mM, 37° C., 30 min, TLC, normalized): 0.33 ± 0.03 nmol/mg protein/min
glucuronidation activity (initial screen) ([1]; UDP-GlcUA 4 mM): specifically glucuronidated
Km [5, 7]: 73 ± 1.9 µM
Vmax [5, 8]: 0.14 ± 0.01 nmol/mg protein/min
glucuronidation activity (initial screen) ([5]; 750 μM substrate, 90 min): specifically glucuronidated

B1: recombinant human UGT1A7 (Homo sapiens) (protein)
chain: GKLLVVPMDGSHWFTMQSVVEKLILRGHEVVVVMPEVSWQLGRSLNCTVKTYSTSYTLEDQDREFMVFADARWTAPLRSAFSLLTSSSNGIFDLFFSNCRSLFNDRKLVEYLKESCFDAVFLDPFDACGLIVAKYFSLPSVVFARGIFCHYLEEGAQCPAPLSYVPRLLLGFSDAMTFKERVWNHIMHLEEHLFCPYFFKNVLEIASEILQTPVTAYDLYSHTSIWLLRTDFVLEYPKPVMPNMIFIGGINCHQGKPVPMEFEAYINASGEHGIVVFSLGSMVSEIPEKKAMAIADALGKIPQTVLWRYTGTRPSNLANNTILVKWLPQNDLLGHPMTRAFITHAGSHGVYESICNGVPMVMMPLFGDQMDNAKRMETKGAGVTLNVLEMTSEDLENALKAVINDKSYKENIMRLSSLHKDRPVEPLDLAVFWVEFVMRHKGAPHLRPAAHDLTWYQYHSLDVIGFLLAVVLTVAFITFKCCAYGYRKCLGKKGRVKKAHKSKTH
Km [6, 9]: 19 ± 3.9 µM
Vmax [6, 9]: 0.00024 µmol/min/mg

B2: recombinant human UGT1A9 (Homo sapiens) (protein)
chain: GKLLVVPMDGSHWFTMRSVVEKLILRGHEVVVVMPEVSWQLGRSLNCTVKTYSTSYTLEDLDREFKAFAHAQWKAQVRSIYSLLMGSYNDIFDLFFSNCRSLFKDKKLVEYLKESSFDAVFLDPFDNCGLIVAKYFSLPSVVFARGILCHYLEEGAQCPAPLSYVPRILLGFSDAMTFKERVRNHIMHLEEHLLCHRFFKNALEIASEILQTPVTEYDLYSHTSIWLLRTDFVLDYPKPVMPNMIFIGGINCHQGKPLPMEFEAYINASGEHGIVVFSLGSMVSEIPEKKAMAIADALGKIPQTVLWRYTGTRPSNLANNTILVKWLPQNDLLGHPMTRAFITHAGSHGVYESICNGVPMVMMPLFGDQMDNAKRMETKGAGVTLNVLEMTSEDLENALKAVINDKSYKENIMRLSSLHKDRPVEPLDLAVFWVEFVMRHKGAPHLRPAAHDLTWYQYHSLDVIGFLLAVVLTVAFITFKCCAYGYRKCLGKKGRVKKAHKSKTH
Km [6, 10]: 3.4 ± 1.3 µM
Vmax [6, 10]: 0.0001 µmol/min/mg

B3: recombinant human UGT1A10 (Homo sapiens) (protein)
chain: GKLLVVPMDGSHWFTMQSVVEKLILRGHEVVVVMPEVSWQLERSLNCTVKTYSTSYTLEDQNREFMVFAHAQWKAQAQSIFSLLMSSSSGFLDLFFSHCRSLFNDRKLVEYLKESSFDAVFLDPFDTCGLIVAKYFSLPSVVFTRGIFCHHLEEGAQCPAPLSYVPNDLLGFSDAMTFKERVWNHIVHLEDHLFCQYLFRNALEIASEILQTPVTAYDLYSHTSIWLLRTDFVLDYPKPVMPNMIFIGGINCHQGKPLPMEFEAYINASGEHGIVVFSLGSMVSEIPEKKAMAIADALGKIPQTVLWRYTGTRPSNLANNTILVKWLPQNDLLGHPMTRAFITHAGSHGVYESICNGVPMVMMPLFGDQMDNAKRMETKGAGVTLNVLEMTSEDLENALKAVINDKSYKENIMRLSSLHKDRPVEPLDLAVFWVEFVMRHKGAPHLRPAAHDLTWYQYHSLDVIGFLLAVVLTVAFITFKCCAYGYRKCLGKKGRVKKAHKSKTH
Km [6, 11]: 59 ± 10 µM
Vmax [6, 11]: 0.00091 µmol/min/mg

B4: recombinant human UGT1A8 (Homo sapiens) (protein)
chain: GKLLVVPMDGSHWFTMQSVVEKLILRGHEVVVVMPEVSWQLGKSLNCTVKTYSTSYTLEDLDREFMDFADAQWKAQVRSLFSLFLSSSNGFFNLFFSHCRSLFNDRKLVEYLKESSFDAVFLDPFDACGLIVAKYFSLPSVVFARGIACHYLEEGAQCPAPLSYVPRILLGFSDAMTFKERVRNHIMHLEEHLFCQYFSKNALEIASEILQTPVTAYDLYSHTSIWLLRTDFVLDYPKPVMPNMIFIGGINCHQGKPLPMEFEAYINASGEHGIVVFSLGSMVSEIPEKKAMAIADALGKIPQTVLWRYTGTRPSNLANNTILVKWLPQNDLLGHPMTRAFITHAGSHGVYESICNGVPMVMMPLFGDQMDNAKRMETKGAGVTLNVLEMTSEDLENALKAVINDKSYKENIMRLSSLHKDRPVEPLDLAVFWVEFVMRHKGAPHLRPAAHDLTWYQYHSLDVIGFLLAVVLTVAFITFKCCAYGYRKCLGKKGRVKKAHKSKTH
Km [6, 12]: 44 ± 8.1 µM
Vmax [6, 12]: 0.00049 µmol/min/mg
